Several values for one entry are separate records, joined by “and”; a condition that tells them apart may be missing. Equal values may be shown once. Inconclusive results and toxic doses are left out.
Test system: P388 leukemia ip, CD2F1 mice, survival T/C
Test: NCI In Vivo Anticancer Drug Screen. Data for tumor model P388 Leukemia (intraperitoneal) in CD2F1 (CDF1) mice
Conditions: endpoint: median survival time, higher = longer survival
Experimental: The antitumor activity of compounds was measured in mice bearing transplantable tumors. Survival or tumor size were measured and the results are expressed as the measurement made in the treated group (T) divided by the measurement made in the vehicle treated control group (C). The tumor model used in this assay is P388 Leukemia (intraperitoneal) in CD2F1 (CDF1) mice

[1] = dose: 100.0 mg/kg/injection, schedule: Q04DX002 (ip), vehicle: saline with Tween-80
[2] = dose: 50.0 mg/kg/injection, schedule: Q01DX005 (ip), vehicle: Klucel (hydroxypropylcellulose) (HPC)
[3] = dose: 100.0 mg/kg/injection, schedule: Q01DX005 (ip), vehicle: Klucel (hydroxypropylcellulose) (HPC)
[4] = dose: 200.0 mg/kg/injection, schedule: Q01DX005 (ip), vehicle: Klucel (hydroxypropylcellulose) (HPC)
[5] = dose: 0.19 mg/kg/injection, schedule: Q01DX009 (ip), vehicle: saline
[6] = dose: 0.39 mg/kg/injection, schedule: Q01DX009 (ip), vehicle: saline
[7] = dose: 25.0 mg/kg/injection, schedule: Q01DX009 (ip), vehicle: Klucel (hydroxypropylcellulose) (HPC)
[8] = dose: 50.0 mg/kg/injection, schedule: Q01DX009 (ip), vehicle: Klucel (hydroxypropylcellulose) (HPC)
[9] = dose: 100.0 mg/kg/injection, schedule: Q01DX009 (ip), vehicle: Klucel (hydroxypropylcellulose) (HPC)
[10] = dose: 60.0 mg/kg/injection, schedule: Q01DX005 (ip), vehicle: saline with Tween-80
[11] = dose: 120.0 mg/kg/injection, schedule: Q01DX005 (ip), vehicle: saline with Tween-80
[12] = dose: 240.0 mg/kg/injection, schedule: Q01DX005 (ip), vehicle: saline with Tween-80
[13] = dose: 200.0 mg/kg/injection, schedule: Q01DX009 (ip), vehicle: Klucel (hydroxypropylcellulose) (HPC)
[14] = dose: 50.0 mg/kg/injection, schedule: Q01DX009 (ip), vehicle: saline with Tween-80

Compound: CC(=O)NC1C(=O)OC(C(O)CO)C1O (stereo not drawn)
- T/C (dose: 12.5 mg/kg/injection, schedule: Q01DX009 (ip), vehicle: water): 106 % of control
- T/C (dose: 25.0 mg/kg/injection, schedule: Q01DX009 (ip), vehicle: water): 91 % of control
- T/C (dose: 50.0 mg/kg/injection, schedule: Q01DX009 (ip), vehicle: water): 94 % of control
- T/C (dose: 100.0 mg/kg/injection, schedule: Q01DX009 (ip), vehicle: water): 102 % of control
- T/C (dose: 200.0 mg/kg/injection, schedule: Q01DX009 (ip), vehicle: water): 98 % of control

Compound: NC(CSCNc1ncnc2c1ncn2C1OC(CO)C(O)C1O)C(=O)O (stereo not drawn)
- T/C [1]: 105 % of control
- T/C (dose: 200.0 mg/kg/injection, schedule: Q04DX002 (ip), vehicle: saline with Tween-80): 105 % of control
- T/C (dose: 400.0 mg/kg/injection, schedule: Q04DX002 (ip), vehicle: saline with Tween-80): 102 % of control

Compound: COc1cc2c(cc1OC)C1C(CC(=O)O)CCCN1CC2 (stereo not drawn)
- T/C [2]: 112 % of control
- T/C [3]: 100 % of control
- T/C [4]: 100 % of control

Compound: CC(=O)c1c(O)c(C)c(O)c2c1OC1=Cc3c(c(C)nn3C)C(=O)C12C (stereo not drawn)
- T/C (dose: 6.25 mg/kg/injection, schedule: Q01DX009 (ip), vehicle: gum acacia): 100 % of control and 109 % of control
- T/C (dose: 50.0 mg/kg/injection, schedule: Q01DX009 (ip), vehicle: gum acacia): 119 % of control and 92 % of control and 93 % of control

Compound: CCOC(=O)c1nc(C)n2cc([N+](=O)[O-])ccc12
- T/C (dose: 2.0 mg/kg/injection, schedule: Q01DX009 (ip), vehicle: saline): 86 % of control
- T/C (dose: 4.0 mg/kg/injection, schedule: Q01DX009 (ip), vehicle: saline): 91 % of control
- T/C (dose: 8.0 mg/kg/injection, schedule: Q01DX009 (ip), vehicle: saline): 88 % of control

Compound: O=S1(=O)CC2(N3CCOCC3)CCCCC21 (stereo not drawn)
- T/C (dose: 100.0 mg/kg/injection, schedule: Q04DX003 (ip), vehicle: saline with Tween-80): 95 % of control
- T/C (dose: 200.0 mg/kg/injection, schedule: Q04DX003 (ip), vehicle: saline with Tween-80): 100 % of control
- T/C (dose: 400.0 mg/kg/injection, schedule: Q04DX003 (ip), vehicle: saline with Tween-80): 95 % of control

Compound: CCC[P+](CCC)(CCC)CCCCCCCCCC[P+](CCC)(CCC)CCC
- T/C [5]: 106 % of control
- T/C [6]: 100 % of control
- T/C (dose: 0.79 mg/kg/injection, schedule: Q01DX009 (ip), vehicle: saline): 88 % of control

Compound: CC(N)(CSCc1ccccc1)C(=O)O (stereo not drawn)
- T/C [7]: 100 % of control
- T/C [8]: 103 % of control
- T/C [9]: 107 % of control

Compound: O=S(=O)(Nc1cc(C(F)(F)F)ccc1Cl)c1ccc(F)cc1
- T/C [10]: 104 % of control
- T/C [11]: 96 % of control
- T/C [12]: 100 % of control

Compound: COC1SCCn2c1nc1ccccc1c2=O (stereo not drawn)
- T/C [10]: 107 % of control
- T/C [11]: 98 % of control
- T/C [12]: 99 % of control

Compound: COc1cc(-c2c(C)oc(C)c2C(C)=O)ccc1OCc1ccccc1
- T/C (dose: 60.0 mg/kg/injection, schedule: Q01DX005 (ip), vehicle: Klucel (hydroxypropylcellulose) (HPC)): 92 % of control
- T/C (dose: 120.0 mg/kg/injection, schedule: Q01DX005 (ip), vehicle: Klucel (hydroxypropylcellulose) (HPC)): 97 % of control
- T/C (dose: 240.0 mg/kg/injection, schedule: Q01DX005 (ip), vehicle: Klucel (hydroxypropylcellulose) (HPC)): 91 % of control

Compound: CCOC(=O)c1csc(/C=C/c2cc(OC)c(OC)c(OC)c2)n1
- T/C [10]: 105 % of control
- T/C [11]: 100 % of control
- T/C [12]: 92 % of control

Compound: NS(=O)(=O)c1ccc(CN2C(=O)c3ccccc3C2=O)cc1
- T/C [1]: 110 % of control

Compound: CC[n+]1c([S-])nn(C)c1-c1cnccn1
- T/C (dose: 50.0 mg/kg/injection, schedule: Q01DX005 (ip), vehicle: saline with Tween-80): 106 % of control
- T/C (dose: 100.0 mg/kg/injection, schedule: Q01DX005 (ip), vehicle: saline with Tween-80): 108 % of control
- T/C (dose: 200.0 mg/kg/injection, schedule: Q01DX005 (ip), vehicle: saline with Tween-80): 102 % of control

Compound: CCCOCn1cc(F)c(=O)n(COCCC)c1=O
- T/C (dose: 5.62 mg/kg/injection, schedule: Q04DX002 (ip), vehicle: water): 95 % of control
- T/C (dose: 11.25 mg/kg/injection, schedule: Q04DX002 (ip), vehicle: water): 93 % of control
- T/C (dose: 22.5 mg/kg/injection, schedule: Q04DX002 (ip), vehicle: water): 92 % of control
- T/C (dose: 45.0 mg/kg/injection, schedule: Q04DX002 (ip), vehicle: water): 92 % of control
- T/C (dose: 90.0 mg/kg/injection, schedule: Q04DX002 (ip), vehicle: water): 91 % of control
- T/C (dose: 180.0 mg/kg/injection, schedule: Q04DX002 (ip), vehicle: water): 95 % of control

Compound: CCC1(O)CN2CCc3c([nH]c4ccccc34)C1C(/C=C(\C(=O)OC)c1cc3c(cc1OC)N(C)C1C(O)(C(=O)OC)C(OC(C)=O)C4(CC)C=CCN5CCC31C54)C2 (stereo not drawn)
- T/C (dose: 1.0 mg/kg/injection, schedule: Q01DX001 (ip), vehicle: distilled water + Tween-80): 102 % of control
- T/C (dose: 2.0 mg/kg/injection, schedule: Q01DX001 (ip), vehicle: distilled water + Tween-80): 100 % of control
- T/C (dose: 2.0 mg/kg/injection, schedule: Q01DX009 (ip), vehicle: distilled water + alcohol): 160 % of control
- T/C (dose: 4.0 mg/kg/injection, schedule: Q01DX001 (ip), vehicle: distilled water + Tween-80): 100 % of control
- T/C (dose: 4.0 mg/kg/injection, schedule: Q01DX009 (ip), vehicle: distilled water + alcohol): 152 % of control
- T/C (dose: 8.0 mg/kg/injection, schedule: Q01DX001 (ip), vehicle: distilled water + Tween-80): 102 % of control
- T/C (dose: 16.0 mg/kg/injection, schedule: Q01DX001 (ip), vehicle: distilled water + Tween-80): 112 % of control
- T/C (dose: 32.0 mg/kg/injection, schedule: Q01DX001 (ip), vehicle: distilled water + Tween-80): 100 % of control

Compound: CCCCCCCC/C=C/CCCCCCCC(=O)N(C)CCOC(=O)C(C)(C)C
- T/C [8]: 122 % of control and 95 % of control
- T/C [9]: 106 % of control and 120 % of control
- T/C [13]: 103 % of control and 114 % of control

Compound: O=C(Nc1ccc(N=C=S)cc1Cl)c1cc(Cl)cc(Cl)c1O
- T/C [8]: 119 % of control
- T/C [9]: 122 % of control

Compound: CC(CN(C)C)Nc1c2ccccc2nc2cccc([N+](=O)[O-])c12 (stereo not drawn)
- T/C (dose: 0.04 mg/kg/injection, schedule: Q01DX009 (ip), vehicle: saline): 87 % of control
- T/C (dose: 0.09 mg/kg/injection, schedule: Q01DX009 (ip), vehicle: saline): 101 % of control
- T/C [5]: 102 % of control and 113 % of control
- T/C [6]: 109 % of control

Compound: O=C(N=C(N=C(c1ccccc1)N1CCCCC1)c1ccccc1)c1ccccc1
- T/C [14]: 96 % of control
- T/C (dose: 100.0 mg/kg/injection, schedule: Q01DX009 (ip), vehicle: saline with Tween-80): 93 % of control
- T/C (dose: 200.0 mg/kg/injection, schedule: Q01DX009 (ip), vehicle: saline with Tween-80): 95 % of control

Compound: CC(C)(C)C1CCC(P(C)(C)=S)CC1 (stereo not drawn)
- T/C (dose: 12.5 mg/kg/injection, schedule: Q01DX009 (ip), vehicle: Klucel (hydroxypropylcellulose) (HPC)): 99 % of control
- T/C [7]: 114 % of control
- T/C [8]: 94 % of control
- T/C [13]: 97 % of control

Compound: OC1c2ccccc2-c2nc3ccccc3cc21 (stereo not drawn)
- T/C [2]: 110 % of control and 92 % of control
- T/C [3]: 102 % of control and 86 % of control
- T/C [4]: 107 % of control

Compound: CNC(=O)OCc1nnn(-c2ccccc2)c1COC(=O)NC
- T/C (dose: 12.5 mg/kg/injection, schedule: Q01DX005 (ip), vehicle: distilled water + Tween-80): 98 % of control
- T/C (dose: 25.0 mg/kg/injection, schedule: Q01DX005 (ip), vehicle: distilled water + Tween-80): 98 % of control
- T/C (dose: 50.0 mg/kg/injection, schedule: Q01DX005 (ip), vehicle: distilled water + Tween-80): 96 % of control
- T/C (dose: 100.0 mg/kg/injection, schedule: Q01DX005 (ip), vehicle: distilled water + Tween-80): 91 % of control
- T/C (dose: 200.0 mg/kg/injection, schedule: Q01DX005 (ip), vehicle: distilled water + Tween-80): 88 % of control

Compound: CCOC(=O)SC(=S)OCC
- T/C (dose: 6.25 mg/kg/injection, schedule: Q01DX009 (ip), vehicle: saline with Tween-80): 108 % of control
- T/C (dose: 12.5 mg/kg/injection, schedule: Q01DX009 (ip), vehicle: saline with Tween-80): 114 % of control
- T/C (dose: 25.0 mg/kg/injection, schedule: Q01DX009 (ip), vehicle: saline with Tween-80): 100 % of control
- T/C [14]: 87 % of control
